Where two headings read alike, the source gives them in different places.
Key:
[1] = test system: Wolman fibroblasts; experiment: β-Hexosaminidase (HEXB) release, lysosomal exocytosis; assay type: cell-based, human; conditions: 40 μM, 24 hours, compared with vehicle treated cells
Experimental: Measurement of β-Hexosaminidase (HEXB) Release—Fibroblasts were cultured in 24-well plates at 30,000 cells/well in 0.4 ml medium for one day at 37° C. After being washed twice with the assay buffer (DMEM with 2 mM D-mannose 6-phosphate sodium salt), the cells with 0.4 ml/well the assay buffer were incubated at 37° with 0.2 ml/well compound in assay buffer. […] The rest of assay buffer in the 24-well plate was discarded followed by addition of 0.6 ml 1% Triton-X100 in dH2O to lyse the cells. After incubation at 37° C. for 30 min. 6 μl/well cell lysate were added to the 96-well plate with 24 μl assay buffer followed by 90 μl/well 2.25 mM HEXB substrate, 4-Methylumbelliferyl N-acetyl-β-D-glucosaminide (Sigma-Aldrich, #M2133), in a 25 mM citric acid buffer at pH 4.5. The 96-well plate was then measured in the Tecan fluorescence plate reader (Ex=365±20 nm and Em=460±20 nm) after 1 hr incubation at 37° C. and addition of 100 μl/well stop solution (1 M glycine and 1 M NaOH at pH 10.5).
FIG. 3. […] We measured lysosomal exocytosis in delta-T-treated Wolman fibroblasts by determining the activity of beta-hexosaminidase (HEXB), a lysosomal enzyme, in the extracellular medium.
In brief, the level of lysosomal exocytosis was determined by measuring the level of the lysosomal enzyme HEXB secreted into the culture medium following treatment with drug.

[2] = test system: NPC1 and Wolman fibroblasts, control fibroblasts; experiment: Intracellular cytosolic Ca2+ measurement (Fluo-8); assay type: cell-based, human
From the text: (§1) FIG. 4. (calcium assay) Delta-T increases intracellular Ca^2+ concentration and ameliorates lysosomal calcium deficiency in NPC1 cells—Increase in the concentration of intracellular Ca^2+, an important second messenger, triggers a variety of cellular responses including lysosomal exocytosis. In NPC1 fibroblasts there is a dysregulation of calcium homeostasis, as evidenced by lysosomal Ca^2+ deficiency. […] Consistent with an earlier report, lysosomal Ca^2+ was reduced in NPC1 cells compared with that in control cells.

[3] = test system: NPC1-NSCs; experiment: Amplex-red cholesterol assay in NPC1 neural stem cells; assay type: cell-based, human
Experimental: (§2) Amplex-Red Cholesterol Assay—Total cholesterol in patient cells was measured by the Amplex-Red Cholesterol Assay Kit (Invitrogen). The unesterified cholesterol was determined using the same kit without the enzyme […]. Esterified cholesterol was determined as the difference between the total and unesterified cholesterol values. The cells were seeded to black, tissue culture-treated 96-well, 384-well or 1536-well plates at 4000, 1000, 300 cells/well in 100, 20 or 5 μl medium by a Multidrop Combi dispenser (Thermo Scientific, Waltham, Mass.) and cultured for 24 hr. The assay plates were added with compound dilution in DMSO solution using a Pintool station (Klaypsys, San Diego, Calif.) and cultured for 3 days. The cells were washed twice manually for 96-well or 384-well plates or using a centrifugation method in which the inverted plates were placed on a stack of paper towel and centrifuged at 800 rpm for 1 min followed by addition of 7 μl/well PBS (added gently with a 45 degree angled liquid dispenser (Klaypsys). The cholesterol assay mixture from the kit was added at 100, 20 or 2.5 μl/well for 96-well, 384-well or 1536-well plates and incubated for 1 hr at 37° C. The resulted fluorescence intensity was measured with excitation of 560 (±10) and emission of 590 (±10) in a fluorescence plate reader (Tecan, Durham, N.C.).
Induced pluripotent stem cells (IPSCs) from the NPC1 skin fibroblasts were generated and differentiated into neural stem cells (NPC1-NSCs).

[4] = test system: Wolman fibroblasts; experiment: Amplex-Red cholesterol assay in Wolman fibroblasts; assay type: cell-based, human; conditions: Wolman fibroblasts
Experimental: as §2

[5] = test system: NPC1 fibroblasts; experiment: Lysosomal Ca2+ released by GPN in NPC1 fibroblasts; assay type: cell-based, human; conditions: 40 μM, 24 hours
From the text: as §1

[6] = test system: Wolman fibroblasts; experiment: Nile Red staining of neutral lipids in Wolman fibroblasts; conditions: cultured with compound for 3 days
Experimental: Nile-red Staining—The cells were cultured and treated as described above in 96-well plates. On the experimental day, cells were washed two times with PBS and live-stained with 1 μM Nile-red dye solution (prepared in cell culture medium) at 100 μl/well followed by an incubation at 37° C. for 10 min. After washed twice with PBS, the cells were fixed in 3.2% paraformaldehyde in PBS at 100 μl/well 1 μg/ml Hoechst 33342 (Invitrogen) in PBS and incubation at RT for 30 min. The plate was washed twice with PBS and the images were measured in Incell2000 imaging plate reader with a FTTC filter set (Ex=480±20 nm and Ex=525±36 nm) for the neutral lipids (cholesteryl esters and triglycerides) and a DAPI filter set for Hoechst nuclear staining.
(Nile Red) Cells were cultured in the presence of delta tocopherol, alpha tocopherol and MBCD plus in combination for 3 days and then stained for neutral lipid with Nile red.
Wolman fibroblasts were treated with δ-tocopherol, α-tocopherol, methyl-β-cyclodextrin, or combinations of δ-tocopherol and methyl-β-cyclodextrin or α-tocopherol and methyl-β-cyclodextrin. […] To further characterize the effect of treatment on lipid accumulation, treated fibroblasts were evaluated using a Nile Red assay to measure neutral lipid accumulation. […] The Nile Red staining was visualized by fluorescent microscopy.

[7] = test system: NPC1 skin fibroblasts; experiment: Cholesterol accumulation (Amplex-red, filipin) and enlarged lysosomes (Lysotracker) in NPC1 skin fibroblasts; assay type: cell-based, human; conditions: NPC1 skin fibroblasts; concentration dependent
Experimental: as §2

[8] = test system: NPC1, Wolman and other lysosome storage disorder fibroblasts; experiment: Electron microscopy of lysosomal ultrastructure
Experimental: Electron Microscopy—Fibroblast cells were seeded in 6-well plates at 150,000 cells/well in 5 ml medium and cultured for 1 day in the presence or absence of compounds. Cells were fixed in 2% glutaraldehyde, 0.1 M cacodylate buffer, pH 7.2 for 1 hr at room temperature and then stored at 4° C. until TEM analysis was performed. The cells were post fixed in 1% osmium tetroxide in the same buffer for 1 hour and en bloc stained with 0.5% uranyl acetate in 0.1 M acetate buffer, pH 4.2. The cells were then dehydrated in graded ethanol solutions (35%, 50%, 70%, 95% and 100%) and infiltrated overnight in epoxy resin (Poly/Bed 812, Polysciences). After adding fresh pure resin the cell plates were cured for 72 h in 55° C. After removing the polystyrene plates, suitable areas for thin sectioning were selected, cut out with a jewelry saw and glued onto empty resin stubs. About 70 nm thin sections were cut on an ultramicrotome (Leica EM UC6) and mounted on naked copper grids. The thin sections were double stained (uranyl acetate and lead citrate), examined in a Hitachi H-7650 transmission electron microscope, and images were taken using an AMT CCD camera.
The effects of δ-tocopherol and methyl-β-cyclodextrin on the ultrastructural pathology of lysosomes in lysosome storage disorder cells were investigated by electron microscopy. In brief, following treatment of wild-type and lysosome storage disorder fibroblasts with δ-tocopherol, methyl-β-cyclodextrin, or δ-tocopherol and methyl-β-cyclodextrin, the fibroblasts were fixed and embedded. Thin sections of the embedded cells were then prepared and the ultrastructural pathology was examined by electron microscopy. […] The effects of δ-tocopherol and/or methyl-β-cyclodextrin on the ultrastructural pathology of other lysosome disorder fibroblasts-Farber (FIGS. 7,8 and 10); Tay-Sachs (FIG. 8); Fabry (FIG. 8); Wolman (FIG. 9); NPA (FIG. 9); Batten (FIG. 9); MSIIB (FIG. 9)—were analyzed by electron microscopy.

[9] = test system: fibroblasts derived from patients with lysosomal storage diseases; experiment: LysoTracker dye staining of enlarged lysosomes; assay type: cell-based, human
Experimental: On the experimental day, cells were live-stained with 100 μl/well 50 nM LysoTracker-Red DND-99 dye (Invitrogen, #L-7528) in medium at 37° C. for 1 hr followed by plate washing twice with PBS. The plate was then fixed in 100 μl/well 3.2% formaldehyde for 1 hr and washed for two times with PBS. […] After washing twice with PBS, the plates were stored at 4° C. until imaging analysis. DAPI filter set and TRITC filter set in the Incell2000 imaging plate reader were used to visualize Hoechst nuclear staining and LysoTracker staining, respectively.
FIG. 5. […] To test this hypothesis we measured the ability of delta-T to decrease acidic/lysosomal compartment size as determined by LysoTracker staining in fibroblasts derived from patients with six other diseases. Lysosomal storage occurs in these fibroblasts consists of ceroid/lipofuscin in Batten (CLN2), globotriaosylceramide in Fabry, ceramide in Farber, sphingomyelin in NPA, partially degraded heparan sulfate in Sanfilippo type B, and GM2 ganglioside in Tay-Sachs (Table S1).
The effect of various cyclodextrins, δ-tocopherol, and combinations of cyclodextrins and δ-tocopherol on lipid accumulation and lysosome size in wild-type and lysosomal storage disease fibroblasts (Wolman, Tay-Sach, Fabry, Farber, and MPSIIIB fibroblasts) was determined using Lysotracker assay. In brief, cells were treated with various combinations and concentrations of drugs followed by staining with the Lyso tracker dye which is a basophilic fluorescent probe that accumulates in acidic compartments, i.e. lysosomes, within the cell.

[10] = test system: NPC cells; conditions: NPC / NPC1 cells; reported; cited from earlier work

HEXB activity in culture medium [1]: increased | IC50 ([3]; NPC1-NSCs, FIG. 12A, read-out: IC50, Amplex-red cholesterol assay): 18 µM | IC50 ([3]; human NPC1 neural stem cells, values given under dosage recommendations, read-out: IC50 on reduction of cholesterol accumulation, Amplex-red cholesterol assay): 15 µM
Compound: Cc1cc(O)cc2c1O[C@](C)(CCC[C@H](C)CCC[C@H](C)CCCC(C)C)CC2 [delta-tocopherol]
cytosolic Ca2+ [2]: stimulated a transient increase of cytosolic Ca^2+ | potency in NPC1 neuronal cells compared to NPC1 skin fibroblasts [3]: weaker | cholesterol accumulation, combination therapy experiment ([3]; 50 μM HBPCD, 10 μM delta-tocopherol, alone or combined, compared with 5 mM HBPCD): did not show the significant cholesterol reduction effect | reduction in total cholesterol ([4]; FIGS. 1A-1C): significant reduction | reduction in free cholesterol ([4]; FIGS. 1D-1F): significant reduction | lysosomal Ca2+ released by GPN [5]: significantly increased lysosomal Ca^2+ | neutral lipid accumulation (Nile red) ([6]; FIG. 2): reduces accumulation of neutral lipids | neutral lipid accumulation (Nile red) ([6]; FIG. 2, listed as δ-tocopherol): significantly reduced | unesterified cholesterol accumulation (Amplex Red) [7]: dramatically reduces cellular cholesterol accumulation | characteristic storage materials in lysosomes (electron microscopy) ([8]; 40 μM, NPC1 and Wolman cells): significantly reduced the characteristic storage materials | abnormal lysosomal structures (electron microscopy) ([8]; Wolman fibroblasts, FIG. 6): significantly reduced | LysoTracker staining ([9]; 40 μM, six fibroblast lines: Batten (CLN2), Fabry, Farber, NPA, Sanfilippo type B, Tay-Sachs): significantly reduced the LysoTracker staining | LysoTracker staining ([9]; NPC1 and Wolman fibroblasts, 40 μM delta-T or 300 μM MBCD): significantly reduced LysoTracker staining | lipid accumulation and lysosome size (Lysotracker) ([9]; Wolman, Tay-Sach, Fabry, Farber, MPSIIIB fibroblasts, FIGS. 5A-5D): reduced lipid accumulation and lysosome size | cholesterol efflux, accumulation or storage [10]: increased the cholesterol efflux from NPC cells and reduced cholesterol accumulation
